Experimental data reported in US6372774B1, “Derivatives of N-phenylpyrazoles” (Rhone-Poulenc Agriculture Ltd., priority 1985, dated 2002).
Blank lines part the entries; values can stand above or below the compound they belong to.

How the values were obtained:
[1] = tested on: Megoura viciae (Vetch Aphid); assay: Test 1(b): spray of infested tic bean plants, Megoura viciae; format: in vivo; conditions: at 50 ppm, 2 days, score 0-3 per replicate, 4 replicates (maximum 12)
Description: (§1) One or more dilutions of the compounds to be tested were made in 50% aqueous acetone.
(b) Megoura viciae (Vetch Aphid)
(§2) Potted tic bean plants previously infected with mixed stages of Megoura were sprayed to run-off using a laboratory turntable sprayer. Treated plants were held in a greenhouse for 2 days and were assessed for aphid mortality using a scoring system, judging the response in comparison with plants treated with 50% aqueous acetone alone, as controls. Each treatment was replicated 4 times.

[2] = tested on: larvae of Rhipicephalus appendiculatus; assay: Test 4: tick larvae on guinea-pigs given subcutaneous injections; format: in vivo; conditions: for Result: ticks recovered / engorgement / Result: ticks recovered / number of engorged ticks: 4 subcutaneous injections to guinea-pigs, about 100 hours after infestation; for percentage survival through moulting of engorged tick larvae: recovered ticks kept at 23° C. for 14 to 21 days
Description: Some 20 larvae of Rhipicephalus appendiculatus were placed in plastic capsules attached to the shaved flank of guinea-pigs. After 3 hours and then at 23 hourly intervals, the guinea-pigs were given a total of 4 subcutaneous injections of the test compound. Approximately 100 hours after infestation, the guinea-pigs were killed and the engorged tick larvae recovered, counter and kept at 23° C. in a humidity cabinet for 14 to 21 days. After this period, the percentage survival through moulting was assessed.

[3] = tested on: Phaedon cochleariae (Mustard Beetle); assay: Test 3 a): leaf disc spray test, Phaedon cochleariae larvae; format: in vivo; conditions: Phaedon cochleariae, foliar, read-out: Phaedon % m 10 ppm
Method in brief: (§3)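 Compounds were diluted in 50% aqueous acetone and sprayed in a Potter Tower onto turnip leaf discs in agar, each infested with 10 larvae (2nd instar Plutella, 3rd instar Phaedon), with four replicates per treatment. Mean percentage larval mortality was scored 4–5 days later at 25 °C.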

[4] = tested on: Plutella xylostella (Diamond-back Moth); assay: whole plant or invertebrate; format: in vivo; conditions: foliar
Method in brief: as §3

[5] = tested on: Megoura viciae (Vetch Aphid); assay: Test 3 b): spray of infested tic bean plants, Megoura viciae; format: in vivo
Description: as §1
b) Megoura viciae (Vetch Aphid)
as §2, with “controls.” for “controls. Each treatment was replicated 4 times.”

[6] = Dose 5 mg/kg at each repetition
[7] = Dose 2.5 mg/kg at each repetition
[8] = Dose 3 mg/kg at each repetition
[9] = Dose 4 mg/kg at each repetition

SMILES: C=CCSc1c(C#N)nn(-c2c(Cl)cc(C(F)(F)F)cc2Cl)c1N [Compound 75, 4-Allylthio-5-amino-3-cyano-1-(2,6-dichloro-4-trifluoromethylphenyl)pyrazole]
score against all stages of Megoura viciae [1]: 7/12

SMILES: CC(C)CSc1c(C#N)nn(-c2c(Cl)cc(C(F)(F)F)cc2Cl)c1N [Compound 73, 5-Amino-3-cyano-1-(2,6-dichloro-4-trifluoromethylphenyl)-4-(2-methylpropylthio)pyrazole]
score against all stages of Megoura viciae [1]: 7/12

SMILES: CC(C)Sc1c(C#N)nn(-c2c(Cl)cc(C(F)(F)F)cc2Cl)c1N [Compound 72, 5-Amino-3-cyano-1-(2,6-dichloro-4-trifluoromethylphenyl)-4-isopropylthiopyrazole]
score against all stages of Megoura viciae [1]: 7/12

SMILES: CC(C)(C)C(=O)Nc1c(C#N)c(C#N)nn1-c1c(Cl)cc(C(F)(F)F)cc1Cl [Compound 134, 1-(2,6-Dichloro-4-trifluoromethylphenyl)-3,4-dicyano-5-(2,2-dimethylpropionamido)-pyrazole]
Result: ticks recovered / engorgement [2, 6]: Less than five engorged ticks
Result: ticks recovered / engorgement ([2]; Dose 10 mg/kg at each repetition): No ticks recovered

SMILES: CC(=O)Nc1c(C#N)c(C(F)(F)F)nn1-c1c(Cl)cc(C(F)(F)F)cc1Cl [Compound 133, 5-Acetamido-4-cyano-1-(2,6-dichloro-4-trifluoromethylphenyl)-3-trifluoromethylpyrazole]
pest or weed control at 10 ppm [3]: 100%
mortality at 100 ppm ([4]; read-out: Plutella % mortality at 100 ppm): 21%
Result: ticks recovered / engorgement [2, 7]: No ticks recovered
Result: ticks recovered / engorgement [2, 6]: No ticks recovered
Result: ticks recovered / engorgement ([2]; Dose 15 mg/kg at each repetition): No ticks recovered

SMILES: N#Cc1c(C(F)(F)F)nn(-c2c(Cl)cc(C(F)(F)F)cc2Cl)c1N [Compound 113, 5-Amino-4-cyano-1-(2,6-dichloro-4-trifluoromethylphenyl)-3-trifluoromethylpyrazole]
pest or weed control at 10 ppm [3]: 100%
mortality at 50 ppm ([5]; Megoura viciae, read-out: mortality of Megoura viciae): 100%
score from 4 replicates, Megoura viciae ([5]; Test 3 method (b), application of 50 ppm, score 0-3 per replicate, maximum 12): 12
mortality at 500 ppm ([4]; read-out: mortality of larvae of Plutella xylostella): 100%
percentage survival through moulting of engorged tick larvae ([2]; Dose 1.0 mg/kg at each repetition): only 47.9 percent survived
percentage survival through moulting of engorged tick larvae [2, 7]: only 30.0 percent survived
Result: ticks recovered / number of engorged ticks [2, 8]: reduced
percentage survival through moulting of engorged tick larvae [2, 8]: 8.3%
Result: ticks recovered / engorgement [2, 9]: No ticks recovered
Result: ticks recovered / engorgement [2, 6]: No ticks recovered

SMILES: CC(=O)Nc1c(C#N)c(C#N)nn1-c1c(Cl)cc(C(F)(F)F)cc1Cl [Compound 120, 5-Acetamido-1-(2,6-dichloro-4-trifluoromethylphenyl)-3,4-dicyanopyrazole]
percentage survival through moulting of engorged tick larvae [2, 7]: only 62.5 percent survived
Result: ticks recovered / number of engorged ticks [2, 8]: Less than five engorged ticks
Result: ticks recovered / engorgement [2, 9]: No ticks recovered
Result: ticks recovered / engorgement [2, 6]: No ticks recovered

SMILES: N#Cc1nn(-c2c(Cl)cc(C(F)(F)F)cc2Cl)c(N)c1SC(Cl)(Cl)Cl [Compound 11, 5-Amino-3-cyano-1-(2,6-dichloro-4-trifluoromethylphenyl)-4-trichloromethylthiopyrazole]
score against all stages of Megoura viciae [1]: 7/12

SMILES: Cc1nn(-c2c(Cl)cc(C(F)(F)F)cc2Cl)c(N2C(=O)CCC2=O)c1C#N [Compound 169, 4-Cyano-1-(2,6-dichloro-4-trifluoromethylphenyl)-3-methyl-5-succinimidopyrazole]
melting point: 202 to 204 °C

SMILES: CC(C)[S+]([O-])c1c(C#N)nn(-c2c(Cl)cc(C(F)(F)F)cc2Cl)c1N (stereo not shown) [Compound 58, 5-Amino-3-cyano-1-(2,6-dichloro-4-trifluoromethylphenyl)-4-isopropylsulphinylpyrazole]
score against all stages of Megoura viciae [1]: 7/12

SMILES: CCCSc1c(C#N)nn(-c2c(Cl)cc(C(F)(F)F)cc2Cl)c1N [Compound 71, 5-Amino-3-cyano-1-(2,6-dichloro-4-trifluoromethylphenyl)-4-propylthiopyrazole]
score against all stages of Megoura viciae [1]: 7/12

SMILES: CCOC(=O)c1c(C)nn(-c2c(Cl)cc(C(F)(F)F)cc2Cl)c1N [Compound 162, 5-Amino-1-(2,6-dichloro-4-trifluoromethylphenyl)-3-methyl-4-ethoxycarbonylpyrazole]
melting point: 115 to 118 °C

SMILES: CCC(=O)Nc1c(C#N)c(C#N)nn1-c1c(Cl)cc(C(F)(F)F)cc1Cl
melting point: 188 to 189 °C

SMILES: CC(=O)Nc1c([N+](=O)[O-])c(C(F)(F)F)nn1-c1c(Cl)cc(C(F)(F)F)cc1Cl [Compound 192, 5-Acetamido-1-(2,6-dichloro-4-trifluoromethylphenyl)-4-nitro-3-trifluoromethylpyrazole]
melting point: 194 to 195 °C

SMILES: CCC(C)Sc1c(C#N)nn(-c2c(Cl)cc(C(F)(F)F)cc2Cl)c1N (stereo not shown) [Compound 74, 5-Amino-3-cyano-1-(2,6-dichloro-4-trifluoromethylphenyl)-4-(1-methylpropylthio)pyrazole]
score against all stages of Megoura viciae [1]: 7/12

SMILES: N#Cc1nn(-c2c(F)c(F)c(C(F)(F)F)c(F)c2F)c(N)c1C#N [Compound 126, 5-Amino-3,4-dicyano-1-(2,3,5,6-tetrafluoro-4-trifluoromethylphenyl)pyrazole]
melting point: 262 to 263 °C

SMILES: CC[S+]([O-])c1c(C)nn(-c2c(Cl)cc(C(F)(F)F)cc2Cl)c1N (stereo not shown) [Compound 218, 5-Amino-1-(2,6-dichloro-4-trifluoromethylphenyl)-4-ethylsulphinyl-3-methylpyrazole]
melting point: 157 to 158 °C

Second part, the compound after the results:

melting point: 194 to 195 °C
SMILES: CC(=O)Nc1c(S(C)(=O)=O)c(C(F)(F)F)nn1-c1c(Cl)cc(C(F)(F)F)cc1Cl [Compound 170, 5-Acetamido-1-(2,6-dichloro-4-trifluoromethylphenyl)-4-methanesulphonyl-3-trifluoromethylpyrazole]

melting point: 245 to 246 °C
SMILES: CCNc1c(C#N)c(C#N)nn1-c1c(Cl)cc(C(F)(F)F)cc1Cl

melting point: 270 to 272 °C
SMILES: CS(=O)(=O)c1cc(Cl)c(-n2nc(C(F)(F)F)c(C#N)c2N)c(Cl)c1 [Compound 232, 5-Amino-4-cyano-1-(2,6-dichloro-4-methanesulphonylphenyl)-3-trifluoromethylpyrazole]

melting point: 289 to 290 °C
SMILES: N#Cc1nn(-c2c(Cl)cc([N+](=O)[O-])cc2Cl)c(N)c1C#N [Compound 172, 5-Amino-1-(2,6-dichloro-4-nitrophenyl)-3,4-dicyanopyrazole]

melting point: 116 to 118 °C
SMILES: N#Cc1nn(-c2c(Cl)cc(C(F)(F)F)cc2Cl)c(N)c1SC(F)(F)C(F)Cl (stereo not shown)

melting point: 88 to 90 °C
SMILES: CCOC(=O)N(C)c1c(C#N)c(C(F)(F)F)nn1-c1c(Cl)cc(C(F)(F)F)cc1Cl [Compound 175, 4-Cyano-1-(2,6-dichloro-4-trifluoromethylphenyl)-5-(N-methyl-N-ethoxycarbonylamino)-3-trifluoromethylpyrazole]

melting point: 145.5 to 147 °C
SMILES: CCCS(=O)(=O)c1c(C)nn(-c2c(Cl)cc(C(F)(F)F)cc2Cl)c1N [Compound 223, 5-Amino-1-(2,6-dichloro-4-trifluoromethylphenyl)-3-methyl-4-propanesulphonylpyrazole]

melting point: 120 to 122 °C
SMILES: N#Cc1c(C(F)(F)F)nn(-c2c(Cl)cc(C(F)(F)F)cc2Cl)c1SC(F)(F)F [Compound 208, 4-Cyano-1-(2,6-dichloro-4-trifluoromethylphenyl)-3-trifluoromethyl-5-trifluoromethylthiopyrazole]

melting point: 231 to 232 °C
SMILES: N#Cc1nn(-c2c(Cl)cc(OC(F)(F)F)cc2Cl)c(N)c1C#N [Compound 159, 5-Amino-1-(2,6-dichloro-4-trifluoromethoxyphenyl)-3,4-dicyanopyrazole]
